# Measurements as given in the METLIN SMRT retention time set (Domingo-Almenara et al. 2019).
# Assay: gradient 5% acetonitrile 3 min, to 50% in 2 min, to 85% in 15 min, held 3 min, 100 µL/min
# Settings: column: Zorbax Extend-C18 2.1 x 50 mm; eluents: water / acetonitrile, 0.1% formic acid
# Procedure, shortened: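 In both positive and negative ionization mode, a quadrupole time-of-flight mass spectrometer coupled to HPLC analyzed pure standards run in mixtures of ~100 molecules. The Zorbax Extend-C18 column (2.1 × 50 mm, 1.8 μm) was operated at 100 μL/min with water and acetonitrile, each containing 0.1% formic acid. The dead volume was 40 μL and the dwell volume 900 μL. Retention time came from adduct peaks that were computationally picked and individually inspected by hand.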
row,Compound,RP-LC retention time [s]
1,O=C(Nc1cccc(F)c1)C1CCN(S(=O)(=O)c2cc(C(=O)N3CCCC3)cs2)CC1,829
2,O=C(Cn1nc(C2CC2)cc1C(=O)N1CCCC1)NCc1ccc(F)cc1,738
3,Cc1c(Cl)cccc1NC(=O)CN1C(=O)NC2(CCCCC2)C1=O,779
4,COCCN1C(=O)c2cccn2CC1CNS(=O)(=O)c1cccc2nsnc12 (stereo not given),677
5,O=C(Cn1c(=O)n(Cc2ccc3c(c2)OCO3)c(=O)c2ncccc21)N1CCCc2ccccc21,826
6,CCN1CCN(C(=O)C2CCCN(c3nccc(C)n3)C2)CC1 (stereo not given),559
7,CC(=O)c1ccc(S(=O)(=O)N2CCCC(C)(C(=O)NCc3ccc(F)cc3)C2)cc1 (stereo not given),876
8,Cc1ccc(-c2nnc(-c3ccc(Cl)c(S(=O)(=O)N(C)C)c3)o2)cc1,1040
9,Cc1cc(F)ccc1NC(=O)c1c(O)c2cccnc2n(-c2cccc(F)c2)c1=O,1250
10,COc1cccc(CN2CC(N(C3CCOCC3)S(C)(=O)=O)C2)c1,614
11,Cc1nn(CC(=O)N2CCN(c3ccccc3)CC2)c(=O)c2nc(-c3ccccc3)sc12,924
12,CS(=O)(=O)c1ccc(Cc2nnc(NC(=O)C3CCCC3)o2)cc1,632
13,CCOC(=O)c1c(C)[nH]c(C(=O)N2CCC(CC(=O)NCc3ccc(N(C)C)cc3)CC2)c1C,620
14,Cc1ccc(CN2CCn3c(nn(C)c3=O)C2)nc1,530
15,O=C(N[C@H]1C[C@@H]2C[C@H]1CN2C(=O)Cc1ccc(OC(F)(F)F)cc1)c1cccs1,832
16,O=C(CCc1csc(NC(=O)c2cccs2)n1)Nc1ccc2c(c1)OCCO2,733
17,O=C(NCCc1cnc[nH]1)c1cc(-c2cccnc2)nc2ccccc12,566
18,COc1ccc(-n2cc(C(=O)Nc3cnc4ccccc4c3)nn2)cc1,821
19,Cc1ccc(-n2nc(C)c3sc(N(C)CC(=O)N4CCC5(CC4)OCCO5)nc32)cc1,932
20,O=C(NCC1CCN(Cc2ccccc2F)CC1)C1CCN(c2ccc3nncn3n2)CC1,584
21,CCOC(=O)c1cnc(N2CCN(c3ccccc3F)CC2)c2ccccc12,1350
22,CCOC(=O)c1c(C)[nH]c(C(=O)N2CCCC(C(=O)NCc3ccccc3C)C2)c1C (stereo not given),814
23,COc1ccccc1C(CNC(=O)c1cc(=O)c2c(C)cc(C)cc2o1)N(C)C (stereo not given),645

row,Compound,RP-LC retention time [s]
1,Cc1ccc(-c2nc3nc(C)cc(NCc4ccc5c(c4)OCO5)n3n2)cc1,892
2,O=C(CC1CCOC2(CCN(Cc3ccco3)CC2)C1)NC1CC1 (stereo not given),573
3,O=C(Cn1c(-c2cccs2)cc2ccccc21)N1CCN(C(=O)c2ccco2)CC1,908
4,O=C(CNC(=O)c1ccccn1)Nc1nc2ccccc2[nH]1,601
5,COc1ccc(C2C(C(=O)C3CC3)=C(O)C(=O)N2CCCOC(C)C)cc1OC (stereo not given),736
6,Cc1ccc(CNC(=O)N2CCc3nc(-c4ccc(F)cc4)ncc3C2)cc1,952
7,CCc1ccc2c(c1)cc(S(=O)(=O)c1ccccc1)c(=O)n2CC(=O)N1CCCCC1,620
8,O=C(c1ccc2c(c1)OCO2)N1CC(F)(F)C[C@H]1COc1ccncc1,615
9,Cc1ccccc1Cn1cc(-c2ccncc2)cc1C(=O)NCc1ccccc1,735
10,O=C1CC(C(=O)N(Cc2cccnc2)c2nc3ccccc3s2)CN1c1ccccc1 (stereo not given),695
11,CCCNC(=O)C1CCN(c2ccc(SCC(=O)Nc3ccc(N(CC)CC)cc3C)nn2)CC1,576
12,Cc1[nH]c(=O)[nH]c(=O)c1CC(=O)NCCn1nc(-c2ccco2)ccc1=O,552
13,CC(=O)N1CC[C@]2(CO)CN(C(=O)c3ccsc3)C[C@@H]2C1,565
14,CC(=O)N1CCc2cc(N3CC(C(=O)Nc4ccccc4C(F)(F)F)CC3=O)ccc21 (stereo not given),710
15,COc1cccc(CNC(=O)N2CCC3(CC2)NC(=O)c2ccccc2O3)c1,739
16,CCc1nc2cc(-c3noc(Cc4ccc(C)cc4)n3)ccc2o1,1160
17,COc1cc(NC(=O)C2CCCN(c3cnc4nccnc4c3)C2)cc(OC)c1 (stereo not given),712
18,Cc1cc(NC(=O)c2cc(=O)c3ccccc3o2)n(-c2nc(-c3ccc(F)cc3)cs2)n1,1240
19,CCOC(=O)c1sc(NC(=O)c2cn(C)nc2OC)nc1C,767
20,Cc1nc(C2CC23CCN(S(=O)(=O)c2cccnc2)CC3)no1 (stereo not given),726
21,CCc1ccc(Oc2cc(N3CCC(C(=O)NCCCOC)CC3)ncn2)cc1,578
22,Cc1ccccc1CN1CCN(CC(=O)Nc2cccc(Cl)c2C)C(=O)C1=O,792
